Experiment: recombinant barcode read abundance after kanamycin selection (control-corrected) (log10(CPM+1)); higher = more efficient recombination; sequences stand for … in AGTGCAGAGAAAATCGGCCAGTTTTCTCTGCCTGCAGTCCGCATGCCGT…AGATTTATGCAGCGGACTGCCTTTCTCCCAAAGTGATAAACCGGACAGTATCATGGACCGGTTTTCCCGGTAATCCGTATTTGCAAGGTTGGTTTCACT; site = the 11-nt target
Outline: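 Oligos holding a promoter, target, barcode and the J23119-driven first 104 bases of the bridge RNA were Gibson-cloned into a vector that supplied the other 73 bp plus a T7-inducible recombinase. This library was co-electroporated with a donor plasmid into E. coli. Two replicates went on chloramphenicol/ampicillin LB agar (control) and two on chloramphenicol/ampicillin/kanamycin with 0.1 mM IPTG. Recombination efficiency is read from averaged, control-corrected barcode counts per million at recombinant junctions, reported as log10(CPM+1).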
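Also: IS621 recombinase and bridge RNA in Escherichia coli cells.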

| Sequence | recombinant barcode read abundance (log10) |
| --- | --- |
| GAGTTGCCTTGGGTTCTAACCTGTTGCGG (site GAGTAGCCTCC) | 0.0344 |
| GAGTTGCCTTGGGTTCTAACCTGTTGCGG (site GAGTCGCCTCC) | 0.25 |
| GAGTTGCCTTGGGTTCTAACCTGTTGCGG (site GAGTGGCCTCC) | 0.101 |
| GAGTTGCCTTGGGTTCTAACCTGTTGCGG (site GAGTTGCCTCC) | 2.32 |
| GAGTTTGCTTGGGTTCTAACCTGTTGCCT (site GAGTTTGCTAG) | 0.572 |
| GAGTTTGCTTGGGTTCTAACCTGTTGCCT (site GCGTTTGCTAG) | 0.0311 |
| GAGTTTGCTTGGGTTCTAACCTGTTGCCT (site GGGTTTGCTAG) | 0.124 |
| GAGTTTGCTTGGGTTCTAACCTGTTGCCT (site GTGTTTGCTAG) | 0.0382 |
| GATACGGCTTGGGTTCTAACCTGTTGCCT (site GATACGACTAG) | 0.169 |
| GATACGGCTTGGGTTCTAACCTGTTGCCT (site GATACGCCTAG) | 0 |
| GATACGGCTTGGGTTCTAACCTGTTGCCT (site GATACGGCTAG) | 0.149 |
| GATACGGCTTGGGTTCTAACCTGTTGCCT (site GATACGTCTAG) | 0.0137 |
| GATAGGCCTTGGGTTCTAACCTGTTGCCT (site GATAGGCCTAG) | 0.101 |
| GATAGGCCTTGGGTTCTAACCTGTTGCCT (site GTTAGGCCTAG) | 0.031 |
| GATAGTCCTTGGGTTCTAACCTGTTGCCT (site GATAGTACTAG) | 0.122 |
| GATAGTCCTTGGGTTCTAACCTGTTGCCT (site GATAGTCCTAG) | 0.322 |
| GATAGTCCTTGGGTTCTAACCTGTTGCCT (site GATAGTGCTAG) | 0.161 |
| GATAGTCCTTGGGTTCTAACCTGTTGCCT (site GATAGTTCTAG) | 0.159 |
| GATATAGCTTGGGTTCTAACCTGTTGCGG (site GATATAGCTCC) | 2.31 |
| GATATAGCTTGGGTTCTAACCTGTTGCGG (site GTGATAGCTCC) | 0.0376 |
| GATCCCACTTGGGTTCTAACCTGTTGCCT (site GATCCCACTAG) | 1.34 |
| GATCCCACTTGGGTTCTAACCTGTTGCCT (site GATGCCACTAG) | 0.192 |

| Sequence | recombinant barcode read abundance (log10) |
| --- | --- |
| GATCGATCTTGGGTTCTAACCTGTTGCCT (site GATCGATCTAA) | 0.0447 |
| GATCGATCTTGGGTTCTAACCTGTTGCCT (site GATCGATCTAC) | 0.159 |
| GATCGATCTTGGGTTCTAACCTGTTGCCT (site GATCGATCTAG) | 0.663 |
| GATCGATCTTGGGTTCTAACCTGTTGCCT (site GATCGATCTAT) | 0.0541 |
| GATCGATCTTGGGTTCTAACCTGTTGCTT (site GATCGATCTAA) | 0.349 |
| GATCGATCTTGGGTTCTAACCTGTTGCTT (site GATCGATCTAC) | 0 |
| GATCGATCTTGGGTTCTAACCTGTTGCTT (site GATCGATCTAG) | 0.248 |
| GATCGATCTTGGGTTCTAACCTGTTGCTT (site GATCGATCTAT) | 0.0953 |
| GATCGGACTTGGGTTCTAACCTGTTGCGG (site GATCGGACTCC) | 1.69 |
| GATCGGACTTGGGTTCTAACCTGTTGCGG (site GTTCGGACTCC) | 0.596 |
| GATGCACCTTGGGTTCTAACCTGTTGCGG (site GATGCACCTCC) | 2.36 |
| GATGCACCTTGGGTTCTAACCTGTTGCGG (site TGATTGACTAA) | 0.0617 |
| GATGCTACTTGGGTTCTAACCTGTTGCAG (site GATACTACTCT) | 0.0793 |
| GATGCTACTTGGGTTCTAACCTGTTGCAG (site GATGCTACTCT) | 1.04 |
| GATGCTACTTGGGTTCTAACCTGTTGCGG (site GAAGCTACTAC) | 0.128 |
| GATGCTACTTGGGTTCTAACCTGTTGCGG (site GATGCTACTCC) | 2.14 |
| GATGGAGCTTGGGTTCTAACCTGTTGCGG (site GATCGAGCTTC) | 0.198 |
| GATGGAGCTTGGGTTCTAACCTGTTGCGG (site GATGGAGCTCC) | 2.57 |
| GATGGGTCTTGGGTTCTAACCTGTTGCCT (site GATGGGTCTAG) | 1.37 |
| GATGGGTCTTGGGTTCTAACCTGTTGCCT (site GCTGGGTCTAG) | 0.015 |
| GATGGTCCTTGGGTTCTAACCTGTTGCGG (site GACGGTCCTCC) | 0.306 |

Source: the supplement of paper PMC11208160
